PMC8765781, “A platform of assays for the discovery of anti-Zika small-molecules with activity in a 3D-bioprinted outer-blood-retina model” (PLoS ONE, 2022)
Like-named read-outs stand apart in the source and are kept apart here.

Key:
[1] = tested on: ZIKV-RLuc (Cambodian strain FSS13025); experiment: microbe, parasite or virus in culture; format: cell-based, Zika virus; conditions: for AC50: Zika virus, Vero
[2] = read-out: Log AC50 (M) (converted)

SMILES | AC50 (Vero cells) [µM] | Log AC50 (M) (Vero cells) | CC-v2 (curve class classification v2 of the dose response curve) [1] | Efficacy (difference between neutral response and maximum compound response) [1] | Max Resp (difference between neutral response and compound response for highest compound concentration) [1] | AC50 [1] [M] | AC50 [1, 2] [M]
COc1cc(OC2CCN(C)CC2)ccc1Nc1ncc2c(n1)n(C1CCCC1)c(=O)n2C [NCGC00263090-01] | 6.76 | -5.1699 | -1.2 | -50.634 | -54.42 | 6.76e-06 | 6.76e-06
CC(=O)N(C)C1(c2ccccc2)CCN(CCC[C@]2(c3ccc(Cl)c(Cl)c3)CCCN(C(=O)c3ccccc3)C2)CC1 [NCGC00263110-01] | 18.5 | -4.7327 | -2.1 | -124.29 | -100.789 | 1.85e-05 | 1.85e-05
C[C@@H](Oc1cc(-n2cnc3ccc(CN4CCN(C)CC4)cc32)sc1C(N)=O)c1ccccc1C(F)(F)F [NCGC00263112-01] | 6.76 | -5.1699 | -2.1 | -113.144 | -99.466 | 6.76e-06 | 6.76e-06
CC(=O)c1c(C)c2cnc(Nc3ccc(N4CCNCC4)cn3)nc2n(C2CCCC2)c1=O [NCGC00263129-04] | 16.5 | -4.7827 | -2.2 | -88.43 | -70.898 | 1.65e-05 | 1.65e-05
Nc1nc(Nc2ccc([S+](N)(=O)[O-])cc2)nn1C(=O)c1c(F)cccc1F [NCGC00263151-01] | 16.5 | -4.7827 | -2.1 | -94.324 | -90.046 | 1.65e-05 | 1.65e-05
Cc1ccc(C(=O)Nc2ccc(CN3CCN(C)CC3)c(C(F)(F)F)c2)cc1C#Cc1cnc2cccnn12 [NCGC00263152-01] | 1.85 | -5.7327 | -1.1 | -88.579 | -98.949 | 1.85e-06 | 1.85e-06
CC(=O)Nc1ccc([C@H](C)C(=O)Nc2ncc(C(C)C)s2)cc1 [NCGC00263191-01] | 2.33 | -5.6327 | -1.1 | -109.113 | -98.511 | 2.33e-06 | 2.33e-06
C/C=C1\NC(=O)[C@H]2CSSCC/C=C\[C@H](CC(=O)N[C@H](C(C)C)C(=O)N2)OC(=O)[C@H](C(C)C)NC1=O [NCGC00263220-05] | 0.233 | -6.6327 | -1.1 | -96.055 | -99.405 | 2.33e-07 | 2.33e-07
CCOC(CN1C(=O)[C@](CC(=O)Nc2ccc(C)cc2)(NC(=O)Nc2ccc(C)cc2)c2ccccc21)OCC [NCGC00263225-01] | 23.3 | -4.6327 | -2.1 | -106.258 | -97.88 | 2.33e-05 | 2.33e-05
Nc1ccc(C(=O)c2cc3c(ccc4ccccc43)[nH]2)cc1 [NCGC00263233-01] | 20.8 | -4.6827 | -2.1 | -115.821 | -99.398 | 2.08e-05 | 2.08e-05
CN(C)c1ccc(C(=O)NCCCCCCC(=O)NO)cc1 [NCGC00263617-05] | 10.4 | -4.9827 | -1.1 | -93.524 | -92.631 | 1.04e-05 | 1.04e-05
CN1CCCC(CC2c3ccccc3Sc3ccccc32)C1.Cl (centres unmarked) [NCGC00273481-01] | 36.9 | -4.4327 | -3 | -90.373 | -72.236 | 3.69e-05 | 3.69e-05
Cc1c(Cn2c(C)nc3c(C(=O)O)cc(N4CCOCC4)cc32)cccc1C(F)(F)F [NCGC00345796-01] | 14.7 | -4.8327 | -2.2 | -74.499 | -73.923 | 1.47e-05 | 1.47e-05
O=C(CCCCCCNC(=O)c1cnc(N(c2ccccc2)c2ccccc2)nc1)NO [NCGC00345802-01] | 18.5 | -4.7327 | -2.1 | -102.183 | -84.021 | 1.85e-05 | 1.85e-05
CN(C)Cc1c(C(=O)NCCOc2ccc(C(=O)NO)cc2)oc2ccccc12 [NCGC00346486-01] | 9.28 | -5.0327 | -1.1 | -96.645 | -98.785 | 9.28e-06 | 9.27e-06
O=C1NC(=O)/C(=C/c2ccc3nccc(-c4ccncc4)c3c2)S1 [NCGC00346509-02] | 1.47 | -5.8327 | -1.1 | -91.751 | -97.47 | 1.47e-06 | 1.47e-06
Cc1ccc(NC(=O)c2ccc(CN3CC[C@H](N(C)C)C3)c(C(F)(F)F)c2)cc1Nc1ncc(-c2cncnc2)cn1 [NCGC00346514-01] | 16.5 | -4.7827 | -2.1 | -111.251 | -100.269 | 1.65e-05 | 1.65e-05
